Key:
[1] = biological target: Mitogen-activated protein kinase 1 (Homo sapiens) (UniProt P28482); assay: Inhibition of ERK2 (unknown origin) at 1 uM incubated for 30 mins in presence of [gamma-33P]ATP by multidrop micro reagent based assay relative to control; values are per cent of control
[2] = biological target: Mitogen-activated protein kinase 11 (Homo sapiens) (UniProt Q15759); assay: Inhibition of p38beta MAPK (unknown origin) at 1 uM incubated for 30 mins in presence of [gamma-33P]ATP by multidrop micro reagent based assay relative to control; values are per cent of control
Mitogen-activated protein kinase 11 (Homo sapiens), sequence (Q15759 whole entry): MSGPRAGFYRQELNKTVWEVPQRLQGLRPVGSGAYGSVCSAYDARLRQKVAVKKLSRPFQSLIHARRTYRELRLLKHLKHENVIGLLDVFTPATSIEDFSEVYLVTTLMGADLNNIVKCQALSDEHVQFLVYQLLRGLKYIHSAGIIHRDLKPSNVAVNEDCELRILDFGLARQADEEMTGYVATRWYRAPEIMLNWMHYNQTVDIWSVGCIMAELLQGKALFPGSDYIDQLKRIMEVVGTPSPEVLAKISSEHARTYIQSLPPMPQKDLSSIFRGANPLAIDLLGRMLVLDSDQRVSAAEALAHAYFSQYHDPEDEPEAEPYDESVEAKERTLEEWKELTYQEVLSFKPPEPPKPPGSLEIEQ

[3] = biological target: T1, Serine/threonine-protein kinase Nek2 (Homo sapiens) (UniProt P51955); assay: Inhibition of NEK2a (unknown origin) at 1 uM incubated for 30 mins in presence of [gamma-33P]ATP by multidrop micro reagent based assay relative to control; values are per cent of control
T1 sequence (whole entry): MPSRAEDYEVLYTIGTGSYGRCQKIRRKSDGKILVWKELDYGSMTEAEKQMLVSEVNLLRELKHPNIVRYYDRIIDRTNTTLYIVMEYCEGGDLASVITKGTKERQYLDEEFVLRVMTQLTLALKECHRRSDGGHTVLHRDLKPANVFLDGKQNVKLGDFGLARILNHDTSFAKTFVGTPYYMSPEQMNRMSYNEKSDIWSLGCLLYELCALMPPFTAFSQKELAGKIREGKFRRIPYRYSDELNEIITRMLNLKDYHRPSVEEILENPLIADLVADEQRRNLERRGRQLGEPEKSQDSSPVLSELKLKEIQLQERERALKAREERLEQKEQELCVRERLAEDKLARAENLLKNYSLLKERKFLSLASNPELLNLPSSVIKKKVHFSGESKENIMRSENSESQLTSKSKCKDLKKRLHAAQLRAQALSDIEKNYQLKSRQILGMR

[4] = biological target: Serine/threonine-protein kinase PAK 4 (Homo sapiens) (UniProt O96013); assay: Inhibition of PAK4 (unknown origin) at 1 uM incubated for 30 mins in presence of [gamma-33P]ATP by multidrop micro reagent based assay relative to control
Serine/threonine-protein kinase PAK 4 (Homo sapiens), sequence (O96013 whole entry, looked up): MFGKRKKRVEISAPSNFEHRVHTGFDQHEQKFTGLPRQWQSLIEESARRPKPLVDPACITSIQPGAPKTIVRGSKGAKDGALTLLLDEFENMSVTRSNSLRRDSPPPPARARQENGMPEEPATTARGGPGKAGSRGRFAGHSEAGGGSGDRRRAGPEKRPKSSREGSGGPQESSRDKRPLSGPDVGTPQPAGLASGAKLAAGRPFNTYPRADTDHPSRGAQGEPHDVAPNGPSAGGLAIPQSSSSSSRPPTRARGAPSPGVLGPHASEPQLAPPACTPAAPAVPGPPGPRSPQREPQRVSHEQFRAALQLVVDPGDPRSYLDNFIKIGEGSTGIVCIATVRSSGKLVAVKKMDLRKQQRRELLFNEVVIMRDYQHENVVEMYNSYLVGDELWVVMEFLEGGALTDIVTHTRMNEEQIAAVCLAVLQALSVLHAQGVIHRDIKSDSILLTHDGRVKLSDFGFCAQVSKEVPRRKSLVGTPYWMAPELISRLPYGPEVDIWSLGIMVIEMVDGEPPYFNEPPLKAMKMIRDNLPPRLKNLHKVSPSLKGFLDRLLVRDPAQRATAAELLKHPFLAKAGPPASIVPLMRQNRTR

Homo sapiens = species: Homo sapiens; assay: Inhibition of VEGFR (unknown origin) at 1 uM incubated for 30 mins in presence of [gamma-33P]ATP by multidrop micro reagent based assay relative to control; values are per cent of control
[5] = biological target: Mitogen-activated protein kinase 8 (Homo sapiens) (UniProt P45983); assay: Inhibition of JNK1 (unknown origin) at 10 uM incubated for 30 mins in presence of [gamma-33P]ATP by multidrop micro reagent based assay relative to control; values are per cent of control
Mitogen-activated protein kinase 8 (Homo sapiens), sequence (P45983 whole entry): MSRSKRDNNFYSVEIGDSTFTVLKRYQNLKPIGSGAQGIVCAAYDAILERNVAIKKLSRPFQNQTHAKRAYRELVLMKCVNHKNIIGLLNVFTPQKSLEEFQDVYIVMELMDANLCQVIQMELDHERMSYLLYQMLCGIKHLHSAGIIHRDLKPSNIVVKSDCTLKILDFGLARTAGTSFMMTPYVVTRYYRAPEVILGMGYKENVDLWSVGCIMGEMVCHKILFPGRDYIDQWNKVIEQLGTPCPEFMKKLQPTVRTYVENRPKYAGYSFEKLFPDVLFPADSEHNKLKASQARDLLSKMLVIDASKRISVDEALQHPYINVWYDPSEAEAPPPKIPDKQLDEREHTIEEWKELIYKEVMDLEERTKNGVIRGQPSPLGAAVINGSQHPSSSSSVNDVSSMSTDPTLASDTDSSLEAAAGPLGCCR

[6] = biological target: T2, Serine/threonine-protein kinase 3 (Homo sapiens) (UniProt Q13188); assay: Inhibition of MST2 (unknown origin) at 10 uM incubated for 30 mins in presence of [gamma-33P]ATP by multidrop micro reagent based assay relative to control; values are per cent of control
T2 sequence (whole entry): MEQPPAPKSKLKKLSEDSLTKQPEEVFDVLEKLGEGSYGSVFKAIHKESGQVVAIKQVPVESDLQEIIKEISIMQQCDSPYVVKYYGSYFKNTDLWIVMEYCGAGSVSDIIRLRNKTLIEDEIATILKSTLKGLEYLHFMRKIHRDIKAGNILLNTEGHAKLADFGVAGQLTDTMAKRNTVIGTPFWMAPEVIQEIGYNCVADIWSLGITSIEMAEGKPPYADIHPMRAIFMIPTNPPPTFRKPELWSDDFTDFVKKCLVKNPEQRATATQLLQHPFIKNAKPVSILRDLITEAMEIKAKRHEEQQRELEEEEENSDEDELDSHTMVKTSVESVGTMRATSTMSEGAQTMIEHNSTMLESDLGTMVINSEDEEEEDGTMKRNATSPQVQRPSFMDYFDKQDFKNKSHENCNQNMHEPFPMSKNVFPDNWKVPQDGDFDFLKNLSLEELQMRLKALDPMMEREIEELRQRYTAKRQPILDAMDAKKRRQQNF

[7] = biological target: Mitogen-activated protein kinase kinase kinase 9 (Homo sapiens) (UniProt P80192); assay: Inhibition of MLK1 (unknown origin) at 10 uM incubated for 30 mins in presence of [gamma-33P]ATP by multidrop micro reagent based assay relative to control; values are per cent of control
Mitogen-activated protein kinase kinase kinase 9 (Homo sapiens), sequence (P80192 whole entry, looked up): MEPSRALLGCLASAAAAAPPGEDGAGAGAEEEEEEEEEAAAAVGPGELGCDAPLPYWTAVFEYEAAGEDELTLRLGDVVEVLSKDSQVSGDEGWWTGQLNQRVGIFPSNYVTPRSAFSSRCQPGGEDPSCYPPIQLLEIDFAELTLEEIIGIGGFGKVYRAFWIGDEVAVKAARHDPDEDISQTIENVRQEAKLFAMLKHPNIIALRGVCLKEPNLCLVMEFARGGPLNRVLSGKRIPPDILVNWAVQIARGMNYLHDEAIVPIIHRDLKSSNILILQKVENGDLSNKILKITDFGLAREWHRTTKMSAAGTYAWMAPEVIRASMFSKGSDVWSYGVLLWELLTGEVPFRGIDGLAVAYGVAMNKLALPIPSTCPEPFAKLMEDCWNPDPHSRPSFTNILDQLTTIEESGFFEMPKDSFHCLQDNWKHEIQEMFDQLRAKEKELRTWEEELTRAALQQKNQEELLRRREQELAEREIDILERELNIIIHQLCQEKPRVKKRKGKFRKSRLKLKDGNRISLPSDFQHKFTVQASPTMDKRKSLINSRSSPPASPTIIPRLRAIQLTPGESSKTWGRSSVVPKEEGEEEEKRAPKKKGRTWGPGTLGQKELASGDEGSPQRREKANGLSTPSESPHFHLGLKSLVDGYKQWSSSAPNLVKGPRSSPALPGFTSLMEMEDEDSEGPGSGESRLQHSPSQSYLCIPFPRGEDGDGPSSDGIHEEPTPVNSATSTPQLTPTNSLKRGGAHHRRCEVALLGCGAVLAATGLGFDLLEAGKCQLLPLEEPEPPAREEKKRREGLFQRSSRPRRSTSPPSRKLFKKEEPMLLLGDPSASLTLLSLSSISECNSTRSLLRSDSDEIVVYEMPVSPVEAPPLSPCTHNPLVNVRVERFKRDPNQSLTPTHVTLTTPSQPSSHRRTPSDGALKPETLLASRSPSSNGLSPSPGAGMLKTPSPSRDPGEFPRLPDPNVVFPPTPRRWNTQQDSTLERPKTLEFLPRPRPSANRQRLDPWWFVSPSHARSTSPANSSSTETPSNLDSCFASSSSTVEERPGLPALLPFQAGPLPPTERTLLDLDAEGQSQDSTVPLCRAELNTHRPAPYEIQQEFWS

[8] = biological target: T3, Serine/threonine-protein kinase BRSK2 (Homo sapiens) (UniProt Q8IWQ3); assay: Inhibition of BRSK2 (unknown origin) at 10 uM incubated for 30 mins in presence of [gamma-33P]ATP by multidrop micro reagent based assay relative to control
T3 sequence (whole entry): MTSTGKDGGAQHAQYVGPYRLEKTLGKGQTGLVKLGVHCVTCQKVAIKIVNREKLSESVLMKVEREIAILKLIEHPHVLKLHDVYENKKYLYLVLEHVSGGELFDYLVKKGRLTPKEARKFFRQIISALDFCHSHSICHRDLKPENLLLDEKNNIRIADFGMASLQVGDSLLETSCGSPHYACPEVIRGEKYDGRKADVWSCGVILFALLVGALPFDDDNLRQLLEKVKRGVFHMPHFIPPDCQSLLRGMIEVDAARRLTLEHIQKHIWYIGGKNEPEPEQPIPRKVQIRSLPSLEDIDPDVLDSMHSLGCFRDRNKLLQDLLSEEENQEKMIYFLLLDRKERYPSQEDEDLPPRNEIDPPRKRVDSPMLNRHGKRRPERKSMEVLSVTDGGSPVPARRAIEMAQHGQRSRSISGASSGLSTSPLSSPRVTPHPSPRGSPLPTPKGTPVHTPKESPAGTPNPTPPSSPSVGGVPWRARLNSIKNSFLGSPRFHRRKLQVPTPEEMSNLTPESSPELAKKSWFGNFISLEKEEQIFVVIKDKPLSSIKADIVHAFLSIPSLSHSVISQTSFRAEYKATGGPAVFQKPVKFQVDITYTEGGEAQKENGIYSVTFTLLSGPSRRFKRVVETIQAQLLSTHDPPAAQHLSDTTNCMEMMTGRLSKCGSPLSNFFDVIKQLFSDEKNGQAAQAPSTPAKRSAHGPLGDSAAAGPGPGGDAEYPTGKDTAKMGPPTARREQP

[9] = biological target: AMP-activated protein kinase, AMPK (Homo sapiens) (UniProt P54646+O43741+P54619+Q9UGJ0+Q9Y478+Q13131+Q9UGI9); assay: Inhibition of AMPK (unknown origin) at 10 uM incubated for 30 mins in presence of [gamma-33P]ATP by multidrop micro reagent based assay relative to control; format: protein-complex assay
[10] = biological target: Dual specificity mitogen-activated protein kinase kinase 1 (Homo sapiens) (UniProt Q02750); assay: Inhibition of MKK1 (unknown origin) at 10 uM incubated for 30 mins in presence of [gamma-33P]ATP by multidrop micro reagent based assay relative to control
Dual specificity mitogen-activated protein kinase kinase 1 (Homo sapiens), sequence (Q02750 whole entry): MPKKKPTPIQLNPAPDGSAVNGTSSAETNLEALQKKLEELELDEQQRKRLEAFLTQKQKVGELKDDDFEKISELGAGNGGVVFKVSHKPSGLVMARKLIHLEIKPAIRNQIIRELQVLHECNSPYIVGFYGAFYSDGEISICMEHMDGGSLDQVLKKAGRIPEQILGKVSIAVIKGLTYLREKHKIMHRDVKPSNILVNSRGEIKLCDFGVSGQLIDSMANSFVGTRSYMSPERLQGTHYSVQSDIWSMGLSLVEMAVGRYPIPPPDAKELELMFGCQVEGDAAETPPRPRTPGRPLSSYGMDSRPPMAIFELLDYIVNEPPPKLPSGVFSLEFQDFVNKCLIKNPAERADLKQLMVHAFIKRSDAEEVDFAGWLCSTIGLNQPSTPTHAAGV

Mitogen-activated protein kinase 1 (Homo sapiens), sequence (P28482 whole entry): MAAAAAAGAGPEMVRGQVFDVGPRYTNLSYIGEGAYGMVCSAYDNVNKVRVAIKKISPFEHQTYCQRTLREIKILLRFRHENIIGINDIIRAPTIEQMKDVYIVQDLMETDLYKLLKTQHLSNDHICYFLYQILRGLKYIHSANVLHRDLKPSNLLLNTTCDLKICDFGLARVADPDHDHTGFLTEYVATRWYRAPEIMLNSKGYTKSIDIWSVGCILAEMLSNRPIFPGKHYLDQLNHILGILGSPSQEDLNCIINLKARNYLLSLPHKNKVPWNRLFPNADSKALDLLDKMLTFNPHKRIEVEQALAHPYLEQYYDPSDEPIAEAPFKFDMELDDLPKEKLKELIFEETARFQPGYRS

Structure (SMILES) | residual activity [1] [%] | residual activity [2] [%] | residual activity [3] [%] | residual activity [4] [%] | residual activity (Homo sapiens) [%] | residual activity [5] [%] | residual activity [6] [%] | residual activity [7] [%] | inhibition [8] [%] | inhibition [9] [%] | inhibition [10] [%]
CCn1c(-c2nonc2N)nc2cnc(Oc3cccc(NC(=O)c4ccc(OCCN5CCOCC5)cc4)c3)cc21 [GSK-269962A] | 105 | 113 | – | – | – | – | – | – | – | – | –
Cc1cncc2cccc(S(=O)(=O)N3CCCNC[C@@H]3C)c12 | – | 107 | 99 | 99 | 82 | – | – | – | – | – | –
O=S(=O)(c1cccc2cnccc12)N1CCCNCC1 [FASUDIL] | – | – | – | – | – | 115 | 51 | 56 | 38 | 60 | 41
C[C@@H](N)[C@H]1CC[C@H](C(=O)Nc2ccncc2)CC1 | – | – | – | – | – | 106 | 61 | 90 | 43 | 77 | 71
CC1=C(C(=O)Nc2cc3cn[nH]c3cc2F)C(c2ccc(C(F)(F)F)cc2)CC(=O)N1 (stereo not drawn) | 94 | 97 | 106 | 95 | 117 | – | – | – | – | – | –
